The target in assay [1] is Serine/threonine-protein kinase PAK 6 (Homo sapiens) (UniProt Q9NQU5).
In assay [2] the target is Mitogen-activated protein kinase 6 (Homo sapiens) (UniProt Q16659).
Assay [3] addresses Cyclin-dependent kinase 2 (Homo sapiens, UniProt P24941).
Assay [4] deals with Serine/threonine-protein kinase 10 (Homo sapiens) (UniProt O94804).
For assay [5], the target named is Cyclin-dependent kinase-like 1 (Homo sapiens) (UniProt Q00532).
In assay [6] the target is Casein kinase I isoform gamma-3 (Homo sapiens) (UniProt Q9Y6M4).
The target in assay [7] is T1, Serine/threonine-protein kinase 17A (Homo sapiens) (UniProt Q9UEE5).
T1 sequence (whole entry): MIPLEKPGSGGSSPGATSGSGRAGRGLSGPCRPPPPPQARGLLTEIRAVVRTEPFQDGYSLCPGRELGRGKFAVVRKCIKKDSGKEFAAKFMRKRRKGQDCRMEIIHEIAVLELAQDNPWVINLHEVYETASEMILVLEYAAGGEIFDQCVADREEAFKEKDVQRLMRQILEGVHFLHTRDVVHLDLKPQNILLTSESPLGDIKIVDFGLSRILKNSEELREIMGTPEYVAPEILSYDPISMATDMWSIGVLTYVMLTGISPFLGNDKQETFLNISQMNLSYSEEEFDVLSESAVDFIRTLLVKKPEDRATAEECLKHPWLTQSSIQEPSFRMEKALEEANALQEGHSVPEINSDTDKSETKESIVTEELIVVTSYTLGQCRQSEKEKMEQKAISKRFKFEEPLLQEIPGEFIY

For assay [8], the target named is 5'-AMP-activated protein kinase catalytic subunit alpha-2 (Homo sapiens) (UniProt P54646).
Assay [9] concerns the target Tyrosine-protein kinase JAK1 (Homo sapiens) (UniProt P23458).
Assay [10] concerns the target Casein kinase I isoform gamma-2 (Homo sapiens) (UniProt P78368).
Assay [11] addresses Calcium/calmodulin-dependent protein kinase type II subunit alpha (Homo sapiens) (UniProt Q9UQM7).
Assay [12] concerns the target Serine/threonine-protein kinase PLK1 (Homo sapiens) (UniProt P53350).
Assay [13] has as its target Serine/threonine-protein kinase pim-2 (Homo sapiens, UniProt Q9P1W9).
For assay [14], the target named is Serine/threonine-protein kinase pim-1 (Homo sapiens) (UniProt P11309).
Assay [15] has as its target Dual specificity protein kinase CLK3 (Homo sapiens) (UniProt P49761).
Assay [16] addresses Serine/threonine-protein kinase 26 (Homo sapiens) (UniProt Q9P289).
For assay [17], the target named is Serine/threonine-protein kinase Chk2 (Homo sapiens, UniProt O96017).
Assay [18] deals with Serine/threonine-protein kinase PAK 5 (Homo sapiens) (UniProt Q9P286).
In assay [19] the target is T2, Serine/threonine-protein kinase VRK3 (Homo sapiens) (UniProt Q8IV63).
T2 sequence (whole entry): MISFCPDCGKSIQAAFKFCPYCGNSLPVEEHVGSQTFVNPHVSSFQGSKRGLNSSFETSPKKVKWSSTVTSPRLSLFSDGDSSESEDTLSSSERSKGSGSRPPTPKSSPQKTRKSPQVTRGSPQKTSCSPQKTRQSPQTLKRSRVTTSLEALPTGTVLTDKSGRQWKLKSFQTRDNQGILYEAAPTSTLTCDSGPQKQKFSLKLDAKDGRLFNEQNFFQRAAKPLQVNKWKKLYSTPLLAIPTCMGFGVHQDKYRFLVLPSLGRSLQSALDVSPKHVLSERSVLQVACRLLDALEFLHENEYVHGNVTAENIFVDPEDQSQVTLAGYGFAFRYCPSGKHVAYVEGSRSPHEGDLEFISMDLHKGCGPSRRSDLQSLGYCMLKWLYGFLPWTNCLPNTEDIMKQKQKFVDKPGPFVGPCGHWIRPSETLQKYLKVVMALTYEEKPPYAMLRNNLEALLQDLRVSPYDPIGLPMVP

Assay [20] concerns the target T3, Serine/threonine-protein kinase PLK4 (Homo sapiens) (UniProt O00444).
T3 sequence (whole entry): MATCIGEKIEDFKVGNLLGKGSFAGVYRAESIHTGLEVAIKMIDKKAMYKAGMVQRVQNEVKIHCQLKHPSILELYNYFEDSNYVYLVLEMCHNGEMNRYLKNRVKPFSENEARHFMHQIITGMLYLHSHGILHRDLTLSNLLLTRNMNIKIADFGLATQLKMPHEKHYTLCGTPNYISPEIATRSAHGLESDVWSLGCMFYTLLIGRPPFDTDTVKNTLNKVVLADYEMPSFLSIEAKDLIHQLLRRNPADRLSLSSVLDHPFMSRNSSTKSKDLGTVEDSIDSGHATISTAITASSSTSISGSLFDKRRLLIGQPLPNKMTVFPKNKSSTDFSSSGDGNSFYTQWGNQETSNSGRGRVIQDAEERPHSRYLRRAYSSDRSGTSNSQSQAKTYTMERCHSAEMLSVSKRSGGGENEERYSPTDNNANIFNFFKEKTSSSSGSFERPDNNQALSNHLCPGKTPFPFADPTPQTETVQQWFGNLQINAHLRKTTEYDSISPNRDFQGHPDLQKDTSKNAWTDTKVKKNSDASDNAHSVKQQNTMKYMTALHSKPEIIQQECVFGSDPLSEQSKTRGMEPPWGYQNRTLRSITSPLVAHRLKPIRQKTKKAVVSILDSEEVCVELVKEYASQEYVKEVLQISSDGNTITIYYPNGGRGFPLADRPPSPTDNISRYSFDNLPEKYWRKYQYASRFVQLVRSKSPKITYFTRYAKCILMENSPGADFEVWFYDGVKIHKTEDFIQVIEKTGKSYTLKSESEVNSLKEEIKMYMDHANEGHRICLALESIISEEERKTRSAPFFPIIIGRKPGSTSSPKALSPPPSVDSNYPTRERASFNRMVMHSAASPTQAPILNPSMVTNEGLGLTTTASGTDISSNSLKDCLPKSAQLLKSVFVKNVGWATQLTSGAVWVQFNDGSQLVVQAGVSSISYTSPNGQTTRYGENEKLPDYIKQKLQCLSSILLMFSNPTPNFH

Each structure is given as a SMILES string.

Casein kinase I isoform gamma-3 (Homo sapiens), sequence (Q9Y6M4 whole entry, looked up, canonical isoform): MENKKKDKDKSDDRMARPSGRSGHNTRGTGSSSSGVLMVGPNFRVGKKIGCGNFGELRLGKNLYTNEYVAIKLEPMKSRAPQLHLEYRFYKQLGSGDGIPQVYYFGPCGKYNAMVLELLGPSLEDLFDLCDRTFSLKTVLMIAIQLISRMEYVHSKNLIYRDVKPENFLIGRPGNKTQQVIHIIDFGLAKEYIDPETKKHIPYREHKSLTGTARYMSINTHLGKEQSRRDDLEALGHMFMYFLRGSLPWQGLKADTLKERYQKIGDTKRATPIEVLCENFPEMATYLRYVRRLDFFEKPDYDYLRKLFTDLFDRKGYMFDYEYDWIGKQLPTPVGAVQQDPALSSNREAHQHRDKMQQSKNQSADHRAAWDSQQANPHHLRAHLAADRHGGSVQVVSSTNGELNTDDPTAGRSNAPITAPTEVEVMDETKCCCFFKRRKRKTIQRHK
Serine/threonine-protein kinase 10 (Homo sapiens), sequence (O94804 whole entry, looked up): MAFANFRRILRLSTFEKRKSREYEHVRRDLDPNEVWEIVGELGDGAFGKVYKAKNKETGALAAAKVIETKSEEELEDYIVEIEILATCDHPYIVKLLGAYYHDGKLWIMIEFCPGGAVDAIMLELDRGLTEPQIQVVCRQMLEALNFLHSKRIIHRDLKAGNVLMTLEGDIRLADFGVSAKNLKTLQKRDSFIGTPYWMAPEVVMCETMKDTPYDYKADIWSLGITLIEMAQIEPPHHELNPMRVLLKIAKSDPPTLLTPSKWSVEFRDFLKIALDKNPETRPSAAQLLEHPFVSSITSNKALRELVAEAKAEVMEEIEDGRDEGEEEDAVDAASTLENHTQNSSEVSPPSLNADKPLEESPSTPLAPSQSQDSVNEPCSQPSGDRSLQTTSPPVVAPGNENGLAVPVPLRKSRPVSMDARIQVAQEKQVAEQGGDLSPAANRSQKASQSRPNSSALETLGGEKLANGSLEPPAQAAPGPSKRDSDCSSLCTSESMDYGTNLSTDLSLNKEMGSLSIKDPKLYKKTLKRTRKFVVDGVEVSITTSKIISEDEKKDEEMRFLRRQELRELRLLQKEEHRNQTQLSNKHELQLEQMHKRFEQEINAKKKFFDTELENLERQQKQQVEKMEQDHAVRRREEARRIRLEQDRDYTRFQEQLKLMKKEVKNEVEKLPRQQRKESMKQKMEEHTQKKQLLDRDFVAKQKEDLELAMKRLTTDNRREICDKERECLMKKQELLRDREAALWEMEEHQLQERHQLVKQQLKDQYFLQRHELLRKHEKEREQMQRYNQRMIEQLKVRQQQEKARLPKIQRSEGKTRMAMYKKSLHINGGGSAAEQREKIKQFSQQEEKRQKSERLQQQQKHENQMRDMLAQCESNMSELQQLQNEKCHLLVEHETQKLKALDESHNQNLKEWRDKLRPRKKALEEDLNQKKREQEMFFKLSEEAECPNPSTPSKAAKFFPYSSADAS
Serine/threonine-protein kinase Chk2, sequence (O96017 whole entry): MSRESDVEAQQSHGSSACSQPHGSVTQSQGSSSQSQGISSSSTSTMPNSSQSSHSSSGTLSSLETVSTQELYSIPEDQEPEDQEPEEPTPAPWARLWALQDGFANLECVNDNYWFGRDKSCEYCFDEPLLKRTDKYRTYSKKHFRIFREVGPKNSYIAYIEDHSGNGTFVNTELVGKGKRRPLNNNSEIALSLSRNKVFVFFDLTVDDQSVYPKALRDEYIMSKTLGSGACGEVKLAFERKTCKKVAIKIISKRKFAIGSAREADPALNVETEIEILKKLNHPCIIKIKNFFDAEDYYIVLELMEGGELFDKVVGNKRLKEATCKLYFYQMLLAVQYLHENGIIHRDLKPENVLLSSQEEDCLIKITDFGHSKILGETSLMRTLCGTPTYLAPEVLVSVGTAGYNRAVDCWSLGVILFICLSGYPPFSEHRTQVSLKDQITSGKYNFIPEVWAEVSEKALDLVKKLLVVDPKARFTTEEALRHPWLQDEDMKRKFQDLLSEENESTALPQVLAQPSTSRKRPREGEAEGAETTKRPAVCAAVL
Serine/threonine-protein kinase pim-2, sequence (Q9P1W9 whole entry, looked up): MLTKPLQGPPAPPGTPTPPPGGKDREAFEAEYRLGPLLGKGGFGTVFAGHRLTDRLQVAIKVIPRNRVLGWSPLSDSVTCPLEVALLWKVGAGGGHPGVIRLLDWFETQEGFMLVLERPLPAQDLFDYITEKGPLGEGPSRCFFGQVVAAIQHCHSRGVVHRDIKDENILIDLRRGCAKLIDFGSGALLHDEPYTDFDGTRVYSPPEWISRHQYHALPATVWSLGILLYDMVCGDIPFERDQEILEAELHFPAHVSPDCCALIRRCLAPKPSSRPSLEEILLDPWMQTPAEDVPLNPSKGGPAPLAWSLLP
Casein kinase I isoform gamma-2 (Homo sapiens), sequence (P78368 whole entry, looked up, canonical isoform): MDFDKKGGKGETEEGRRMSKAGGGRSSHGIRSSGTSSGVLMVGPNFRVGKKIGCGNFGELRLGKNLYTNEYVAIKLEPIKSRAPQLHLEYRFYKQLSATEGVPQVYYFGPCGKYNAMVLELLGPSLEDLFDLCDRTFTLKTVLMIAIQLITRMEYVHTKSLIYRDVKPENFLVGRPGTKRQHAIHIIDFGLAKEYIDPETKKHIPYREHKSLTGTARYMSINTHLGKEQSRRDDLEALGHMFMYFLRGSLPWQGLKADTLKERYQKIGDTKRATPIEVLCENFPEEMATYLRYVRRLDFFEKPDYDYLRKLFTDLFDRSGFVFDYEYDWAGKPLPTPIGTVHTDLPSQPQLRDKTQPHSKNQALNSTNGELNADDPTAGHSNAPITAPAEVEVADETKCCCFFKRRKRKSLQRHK
Dual specificity protein kinase CLK3 (Homo sapiens), sequence (P49761 whole entry, looked up): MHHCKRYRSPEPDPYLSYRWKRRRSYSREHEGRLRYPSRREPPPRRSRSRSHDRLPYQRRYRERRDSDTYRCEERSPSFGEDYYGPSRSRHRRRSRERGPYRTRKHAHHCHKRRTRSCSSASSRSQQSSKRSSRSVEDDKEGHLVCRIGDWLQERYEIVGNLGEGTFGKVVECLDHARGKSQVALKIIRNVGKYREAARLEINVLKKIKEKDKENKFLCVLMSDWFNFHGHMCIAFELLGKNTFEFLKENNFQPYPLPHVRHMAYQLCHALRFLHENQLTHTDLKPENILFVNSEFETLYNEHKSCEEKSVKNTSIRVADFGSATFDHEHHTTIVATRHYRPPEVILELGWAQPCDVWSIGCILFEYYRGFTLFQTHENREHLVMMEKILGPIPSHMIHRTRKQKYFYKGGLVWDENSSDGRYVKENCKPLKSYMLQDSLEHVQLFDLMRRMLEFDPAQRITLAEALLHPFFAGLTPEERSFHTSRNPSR
Mitogen-activated protein kinase 6 (Homo sapiens), sequence (Q16659 whole entry): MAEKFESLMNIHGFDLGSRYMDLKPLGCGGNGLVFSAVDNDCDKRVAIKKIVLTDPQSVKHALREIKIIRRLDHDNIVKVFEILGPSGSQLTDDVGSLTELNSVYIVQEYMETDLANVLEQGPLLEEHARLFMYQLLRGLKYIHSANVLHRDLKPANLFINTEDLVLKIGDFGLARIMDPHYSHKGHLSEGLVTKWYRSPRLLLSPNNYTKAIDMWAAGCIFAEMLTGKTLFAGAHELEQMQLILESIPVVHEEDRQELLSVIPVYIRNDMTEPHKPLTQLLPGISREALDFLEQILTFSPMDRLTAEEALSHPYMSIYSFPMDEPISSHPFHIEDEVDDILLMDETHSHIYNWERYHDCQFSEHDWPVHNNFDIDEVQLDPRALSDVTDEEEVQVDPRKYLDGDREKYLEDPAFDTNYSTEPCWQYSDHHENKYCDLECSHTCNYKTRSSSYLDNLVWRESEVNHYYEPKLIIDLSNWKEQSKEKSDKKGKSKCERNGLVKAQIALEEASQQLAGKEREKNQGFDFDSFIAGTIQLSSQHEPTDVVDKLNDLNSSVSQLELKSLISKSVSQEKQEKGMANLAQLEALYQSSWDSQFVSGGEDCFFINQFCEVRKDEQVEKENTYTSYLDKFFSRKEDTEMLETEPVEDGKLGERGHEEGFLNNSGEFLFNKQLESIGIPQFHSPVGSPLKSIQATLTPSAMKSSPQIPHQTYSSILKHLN
Tyrosine-protein kinase JAK1 (Homo sapiens), sequence (P23458 whole entry, canonical isoform): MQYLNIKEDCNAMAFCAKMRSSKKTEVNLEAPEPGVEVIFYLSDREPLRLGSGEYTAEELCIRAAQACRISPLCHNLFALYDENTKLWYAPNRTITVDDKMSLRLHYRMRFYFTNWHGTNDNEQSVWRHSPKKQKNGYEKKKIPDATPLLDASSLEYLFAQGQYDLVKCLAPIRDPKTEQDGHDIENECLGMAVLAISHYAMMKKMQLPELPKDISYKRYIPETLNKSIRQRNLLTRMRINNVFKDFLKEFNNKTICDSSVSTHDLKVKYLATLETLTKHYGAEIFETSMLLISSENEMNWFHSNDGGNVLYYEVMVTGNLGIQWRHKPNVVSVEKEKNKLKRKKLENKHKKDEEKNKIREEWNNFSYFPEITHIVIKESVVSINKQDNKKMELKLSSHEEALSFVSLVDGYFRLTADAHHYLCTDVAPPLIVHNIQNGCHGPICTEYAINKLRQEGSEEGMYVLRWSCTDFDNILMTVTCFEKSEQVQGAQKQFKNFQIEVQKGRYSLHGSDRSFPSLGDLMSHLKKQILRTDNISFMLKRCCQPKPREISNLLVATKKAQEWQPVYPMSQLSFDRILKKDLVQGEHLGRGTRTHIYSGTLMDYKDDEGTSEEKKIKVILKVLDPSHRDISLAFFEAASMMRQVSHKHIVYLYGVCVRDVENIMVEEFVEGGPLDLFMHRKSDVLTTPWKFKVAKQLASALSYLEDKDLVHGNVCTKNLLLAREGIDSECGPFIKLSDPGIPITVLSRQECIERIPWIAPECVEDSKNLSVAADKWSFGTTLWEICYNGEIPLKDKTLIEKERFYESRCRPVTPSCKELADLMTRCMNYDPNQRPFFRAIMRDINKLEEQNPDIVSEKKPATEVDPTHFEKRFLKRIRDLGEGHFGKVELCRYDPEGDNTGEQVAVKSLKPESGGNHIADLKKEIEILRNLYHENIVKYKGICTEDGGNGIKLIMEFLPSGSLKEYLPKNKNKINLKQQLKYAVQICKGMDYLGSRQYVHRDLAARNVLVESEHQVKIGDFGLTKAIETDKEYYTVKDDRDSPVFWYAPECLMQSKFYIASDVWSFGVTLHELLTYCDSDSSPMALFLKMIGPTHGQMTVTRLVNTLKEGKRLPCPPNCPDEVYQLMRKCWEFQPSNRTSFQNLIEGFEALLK

Consider `Oc1cc(O)cc(/C=C/c2ccc(O)c(O)c2)c1` [PICEATANNOL], for which the shift in melting temperature (ΔTm) (as a rule, the shift of the melting midpoint relative to a reference) in assay [1] is 0.5 °C; in assay [2], 0.9 °C; in [3], 1.2 °C; in [4], 0.6 °C; in [5] it was -0.2 °C; in assay [6], 0.5 °C. For the same compound, the shift in melting temperature (ΔTm) in [7] came to 0.3 °C; in [8], 0.2 °C; in assay [9] it was 2 °C; in assay [10] it was 0.2 °C; in [11], 0.8 °C; in assay [12], 2.3 °C. Moreover, the ΔTm was 2 °C in [13]; 3.2 °C in assay [14]; 0.7 °C in [15]; 1 °C in [16]; 1.9 °C in [17]; -0.9 °C in assay [18]. For the same compound, the figures for the thermal shift (ΔTm) in assay [19] and in assay [20] were -0.2 °C and 1.1 °C, respectively.
Turning to `O=C1Nc2ccccc2/C1=C/c1cnc[nH]1`, the ΔTm in assay [1] stood at 1.9 °C; in assay [2], 0.5 °C; in assay [3], 6.6 °C; in assay [4] it was 4.2 °C; in [5] it was 3.7 °C; in assay [6], 1.5 °C. In addition, the shift in melting temperature (ΔTm) amounted to 9 °C in assay [7]; 3.3 °C in assay [8]; 6.9 °C in [9]; 1.6 °C in assay [10]; 0.7 °C in assay [11]; 1.3 °C in [12]. The shift in melting temperature (ΔTm) came out at 1.9 °C in assay [13]; 3 °C in assay [14]; 1 °C in assay [15]; 4.5 °C in [16]; 3 °C in [17]; 0.7 °C in [18]. In addition, the thermal shift (ΔTm) worked out at 0.1 °C in [19] and 5.8 °C in [20].
As to `O=c1cc(N2CCOCC2)oc2c1ccc1ccccc12`, the ΔTm was -0.3 °C in [1]; 0.4 °C in [2]; 0.5 °C in assay [3]; 0.4 °C in assay [4]; 0.1 °C in [5]; 0 °C in assay [6]. The ΔTm in assay [7] turned out to be 0.6 °C; in [8] it was 0.4 °C; in [9], 0.8 °C; in [10], 0.6 °C; in assay [11], 0.3 °C; in assay [12] it was 2.3 °C. The ΔTm is 1 °C in assay [13]; 1.7 °C in [14]; 0.1 °C in assay [15]; 0.2 °C in assay [16]; -0.3 °C in assay [17]; 0 °C in assay [18]. Besides, the ΔTm was 1 °C in [19] and 0.2 °C in [20].
Regarding `Cc1ccc(NC(=O)c2cccc(N(C)C)c2)cc1NC(=O)c1ccc(O)cc1`, the thermal shift (ΔTm) is 0.6 °C in assay [1]; 0.4 °C in assay [2]; 0.3 °C in assay [3]; 0.1 °C in assay [4]; -0.4 °C in [5]; 0.3 °C in assay [6]. In addition, the thermal shift (ΔTm) was 0.6 °C in assay [7]; -0.1 °C in assay [8]; 0.1 °C in [9]; 0.2 °C in [10]; 0.1 °C in [11]; 0.9 °C in [12]. Besides, the shift in melting temperature (ΔTm) in [13] is 0 °C; in assay [14], -0.3 °C; in assay [15] it was 0 °C; in [16] it was 1 °C; in assay [17], 0.9 °C; in [18], 0.6 °C. The shift in melting temperature (ΔTm) is -0.1 °C in [19] and 0.8 °C in [20].
`N#CCCc1ccc2c(c1)-c1[nH]c3ccc([N+](=O)[O-])cc3c1CC(=O)N2` [ALSTERPAULLONE 2]: the shift in melting temperature (ΔTm) was 2.3 °C in [1]; 1.7 °C in [2]; 6.6 °C in assay [3]; 4 °C in assay [4]; 0.5 °C in assay [5]; 1.6 °C in assay [6]. Further, the shift in melting temperature (ΔTm) in [7] came out at 9.6 °C; in [8], 1 °C; in [9], 1.4 °C; in [10] it was 2 °C; in [11], 0.4 °C; in [12], 0.4 °C. In addition, the shift in melting temperature (ΔTm) in assay [13] worked out at 1.4 °C; in assay [14], 1.9 °C; in assay [15], 2.3 °C; in [16], 2.8 °C; in [17], 8.2 °C; in assay [18] it was 3.9 °C. For the same compound, the ΔTm amounted to 0.6 °C in assay [19] and 10.3 °C in assay [20].
On to `O=C1Nc2ccc(S(=O)(=O)O)cc2/C1=C1/Nc2ccccc2/C1=N\O`, for which the shift in melting temperature (ΔTm) in assay [1] turned out to be 3.2 °C; in assay [2] it was 1.1 °C; in [3], 8.1 °C; in assay [4] it was 0.5 °C; in [5], 3.1 °C; in assay [6], 3.7 °C. For the same compound, the ΔTm in [7] was 9.8 °C; in assay [8], 5.5 °C; in [9] it was 4.3 °C; in assay [10], 2.5 °C; in assay [11], 4.8 °C; in assay [12], 1.1 °C. Also, the ΔTm in assay [13] amounted to 3.5 °C; in assay [14], 3.3 °C; in [15], 3.5 °C; in assay [16] it was 0.5 °C; in [17], 4.5 °C; in [18] it was 2.1 °C. The thermal shift (ΔTm) was 1.9 °C in [19] and 10.4 °C in assay [20].
Take `O=C1Cc2c([nH]c3ccc(Br)cc23)-c2ccccc2N1` [KENPAULLONE]: the thermal shift (ΔTm) in assay [1] was 3.7 °C; in assay [2], 0.9 °C; in [3], 3.6 °C; in assay [4] it was 2.2 °C; in assay [5] it was -0.1 °C; in assay [6] it was 0.4 °C. The ΔTm was found to be 5.9 °C in assay [7]; 1.1 °C in assay [8]; 1.7 °C in assay [9]; 0 °C in [10]; 0 °C in assay [11]; 0.1 °C in assay [12]. Moreover, the thermal shift (ΔTm) in assay [13] was found to be 1.2 °C; in assay [14], 2.6 °C; in [15], 0.8 °C; in assay [16], 1.5 °C; in assay [17], 6.1 °C; in assay [18] it was 3.5 °C. In addition, the ΔTm in assay [19] is -0.2 °C; in assay [20] it was 7.1 °C.

The values are drawn from ChEMBL document CHEMBL1145498, “A systematic interaction map of validated kinase inhibitors with Ser/Thr kinases” (Proc Natl Acad Sci U S A, 2007).
